Measurements published in patent publication US8420657B2 (Novartis AG, priority 2008, dated 2013).

Legend:
GST-JAK2(808-1132) = biological target: T1, GST-JAK2(808-1132) (Homo sapiens, UniProt O60674); assay: JAK2 kinase assay (Caliper mobility shift, LabChip 3000); type: biochemical
T1 construct: GST-JAK2(808-1132); purchased Invitrogen (Carlsbad, USA) #4288
Procedure, shortened: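 Recombinant GST-JAK2(808-1132) kinase domain with FITC-labelled JAK3tide peptide substrate and ATP; 60 min at 30 °C, EDTA stop. Substrate/product ratio read by microfluidic mobility shift; compounds at 8 final concentrations, 10 to 0.003 μM.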

[1] = tested on: JAK1/JAK2-dependent nuclear translocation of STAT1-GFP in HT1080 fibrosarcoma cells; assay: STAT1 nuclear translocation assay (Cellomics), IFN-γ stimulated HT1080 STAT1-GFP cells; type: cell-based; settings: Homo sapiens, HT-1080, STAT1 translocation pathway
Procedure, shortened: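 HT1080 cells stably expressing STAT1-GFP, pre-treated 30 min with compound (10 μM–0.003 μM, 0.1% DMSO), then stimulated 2 h with 100 ng/ml IFN-γ, fixed and Hoechst-stained. Nuclear-cytoplasmic GFP differential imaged over ≥1000 cells/well, normalised to unstimulated and DMSO-stimulated wells for IC50.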

T1 sequence (O60674 808-1132): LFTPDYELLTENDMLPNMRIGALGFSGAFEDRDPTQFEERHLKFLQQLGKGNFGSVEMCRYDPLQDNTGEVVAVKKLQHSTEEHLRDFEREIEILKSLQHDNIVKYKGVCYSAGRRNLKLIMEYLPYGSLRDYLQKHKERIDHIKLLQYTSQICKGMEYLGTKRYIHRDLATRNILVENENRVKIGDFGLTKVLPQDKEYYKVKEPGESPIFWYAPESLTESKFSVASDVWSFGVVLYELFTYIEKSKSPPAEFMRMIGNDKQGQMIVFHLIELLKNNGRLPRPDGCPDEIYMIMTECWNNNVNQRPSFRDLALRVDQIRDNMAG

| IC50 (GST-JAK2(808-1132)) [nM] | IC50 [1] [nM] | SMILES |
| --- | --- | --- |
| 4.9 | 420 | COCc1ccc(Nc2ncc3ccn(-c4cc(F)c(CN5CCOCC5)c(F)c4)c3n2)cc1 [Example 135, [7-(3,5-Difluoro-4-morpholin-4-ylmethyl-phenyl)-7H-pyrrolo[2,3-d]pyrimidin-2-yl]-(4-methoxymethyl-phenyl)-amine] |
| 8.1 | 1840 | CC(C)Oc1ccc(Nc2ncc3ccn(-c4ccc(CN5CCCC5)cc4)c3n2)cc1 [Example 107, (4-Isopropoxy-phenyl)-[7-(4-pyrrolidin-1-ylmethyl-phenyl)-7H-pyrrolo[2,3-d]pyrimidin-2-yl]-amine] |
| 3.7 | 255 | Cn1cc(Nc2ncc3ccn(-c4cc(F)c(CN5CCOCC5)c(F)c4)c3n2)cn1 [Example 247, [7-(3,5-Difluoro-4-morpholin-4-ylmethyl-phenyl)-7H-pyrrolo[2,3-d]pyrimidin-2-yl]-(1-methyl-1H-pyrazol-4-yl)-amine] |
| 38 | 2620 | CS(=O)(=O)c1ccc(-n2ccc3cnc(Nc4ccc(F)c(C(=O)N5CCOCC5)c4)nc32)cc1 [Example 77, {2-Fluoro-5-[7-(4-methanesulfonyl-phenyl)-7H-pyrrolo[2,3-d]pyrimidin-2-ylamino]-phenyl}-morpholin-4-yl-methanone] |
| < 3 | 37 | Cc1ccc(Nc2ncc3ccn(-c4cc(F)c(CN5CCS(=O)(=O)CC5)c(F)c4)c3n2)cc1C [Example 290, (3,4-Dimethyl-phenyl)-{7-[4-(1,1-dioxido-thiomorpholin-4-ylmethyl)-3,5-difluoro-phenyl]-7H-pyrrolo[2,3-d]pyrimidin-2-yl}-amine] |
| 8.4 | 351 | CC(C)Oc1ccc(Nc2ncc3ccn(-c4ccc(C(C)N5CCOCC5)cc4)c3n2)cc1 (racemic) [Example 193, (4-Isopropoxy-phenyl)-{7-[4-(1-morpholin-4-yl-ethyl)-phenyl]-7H-pyrrolo[2,3-d]pyrimidin-2-yl}-amine] |
| 6.5 | 920 | O=C(c1ccc(-n2ccc3cnc(Nc4ccc(F)cc4)nc32)cc1F)N1CCOCC1 [Example 59, {2-Fluoro-4-[2-(4-fluoro-phenylamino)-pyrrolo[2,3-d]pyrimidin-7-yl]-phenyl}-morpholin-4-yl-methanone] |
| 11.5 | 5840 | CC(C)Oc1ccc(Nc2ncc3ccn(-c4ccc(N5CCCC5=O)cc4)c3n2)cc1 [Example 105, 1-{4-[2-(4-Isopropoxy-phenylamino)-pyrrolo[2,3-d]pyrimidin-7-yl]-phenyl}-pyrrolidin-2-one] |
| 19 | 1160 | CC(C)Oc1ccc(Nc2ncc3ccn(-c4ccc(C(=O)N5CCOCC5)cc4)c3n2)cn1 [Example 232] |
| 30.5 | 3900 | CCOc1ccc(Nc2ncc3cc(C)n(-c4ccc(CN5CCOCC5)c(F)c4)c3n2)cc1OCC [Example 168, (3,4-Diethoxy-phenyl)-[7-(3-fluoro-4-morpholin-4-ylmethyl-phenyl)-6-methyl-7H-pyrrolo[2,3-d]pyrimidin-2-yl]-amine] |
| < 3 | 202 | CC(C)Oc1ccc(Nc2ncc3ccn(-c4cc(F)c(CN5CCS(=O)(=O)CC5)c(F)c4)c3n2)cc1 [Example 194, {7-[4-(1,1-Dioxido-thiomorpholin-4-ylmethyl)-3,5-difluoro-phenyl]-7H-pyrrolo[2,3-d]pyrimidin-2-yl}-(4-isopropoxy-phenyl)-amine] |
| 8 | 13000 | CC(=O)c1ccc(-n2ccc3cnc(Nc4ccc(OC(C)C)cc4)nc32)cc1 [Example 86, 11-{4-[2-(4-Isopropoxy-phenylamino)-pyrrolo[2,3-d]pyrimidin-7-yl]-phenyl}-ethanone] |
| 11.5 | 1490 | CN1CCN(C(=O)c2c(F)cc(-n3ccc4cnc(Nc5ccc(CN6CCOCC6)cc5)nc43)cc2F)CC1 [Example 192, {2,6-Difluoro-4-[2-(4-morpholin-4-ylmethyl-phenylamino)-pyrrolo[2,3-d]pyrimidin-7-yl]-phenyl}-(4-methyl-piperazin-1-yl)-methanone] |
